Entries after “also recorded” stand apart in the source; their conditions may differ.
System: neurosphere (neural stem cells and/or neural progenitor cells induced from human pluripotent stem cells)
Assay: Functional evaluation of fatty acid (oleic acid) added to human serum albumin-added medium: neurosphere morphology
Assay type: cell-based
Conditions: 14 days' culturing
Method: Similar to Example 1, 2.1 mg/mL human serum albumin-added medium was produced. A medium was produced by adding oleic acid (Tokyo Chemical Industry Co., Ltd.) at a final concentration of 20 μM or 60 μM to this medium, and a medium without addition of oleic acid was produced, and neurospheres were cultured in these media. […] The medium was exchanged every 7 days and, after 14 days' culturing, the morphology of the neurosphere formed was observed under a microscope.

## CCCCCCCC/C=C\CCCCCCCC(=O)O [oleic acid]
20 μM oleic acid in 2.1 mg/mL human serum albumin-added medium
  morphology of the neurosphere formed: showed a good neurosphere form
60 μM oleic acid in 2.1 mg/mL human serum albumin-added medium
  morphology of the neurosphere formed: show a black sphere with an irregular shape; also recorded: Many black sphere images with an irregular shape were confirmed

— patent US20180016554A1, “HUMAN SERUM ALBUMIN-CONTAINING CULTURE MEDIUM FOR GROWTH OF NEURAL STEM CELLS” (AJINOMOTO CO., INC., priority 2015, published 2018)
